From PMC11320734 (ACS Pharmacology & Translational Science, 2024)
Where “and” joins values, the source holds several entries; their conditions need not be identical. Identical values can stand only once. Entries after “also recorded” stand apart in the source; their conditions may differ. Like-named read-outs stand apart in the source and are kept apart here.

Columns and labels:
human Q63R variant CB2R = biological target: T1, human Q63R variant CB2R (Homo sapiens, UniProt P34972, Q63R); assay: cAMP assay in CHO cells; type: cell-based; conditions: mean ± SD
T1 construct: expressed in transfected cells; host or cells: CHO cells

rat CB2R = biological target: T2, rat CB2R (Rattus norvegicus, UniProt Q9QZN9); assay: cAMP assay in CHO cells; type: cell-based; conditions: mean ± SD
T2 construct: expressed in transfected cells; host or cells: CHO cells

[1] = test system: endocannabinoid membrane transporter (EMT); assay: Endocannabinoid target profiling: cellular AEA uptake; type: cell-based
GPR55 = GPR55 (Homo sapiens, UniProt Q9Y2T6); assay: Endocannabinoid target profiling: GPR55; conditions: Table S1; read-out: GPR55 (Ki, IC50)
GSH adduct formation = type: in vitro ADME, human
Experimental: Cytochrome P450 (CYP) assays were conducted as previously described.[41] In brief, RNB-61 was incubated at a range of concentrations with the following components: pooled human liver microsomes, CYP probe substrate around the reported Km, and NADPH with a final concentration: 1 mM in 100 mM sodium phosphate buffer (pH 7.4). The conditions were optimized for a linear metabolic rate for the probe substrate reactions. The analysis of the samples was carried out by LC-MS/MS. The assays generated two endpoints: IC50 (μM) and percent inhibition at the highest acceptable test concentration (typically 50 μM; lower if the highest concentration data are rejected due to insolubility). […] (GSH) adduct formation data was assessed as reported in a previous study.[42] Briefly, RNB-61 was incubated with human liver microsomes to form reactive metabolites, and glutathione was added as a nucleophile to convert the reactive metabolites into stable conjugates that could be analyzed by MS.

[2] = Single-dose pharmacokinetics in male Wistar rats; type: in vivo; conditions: rat, plasma
Experimental: To characterize the pharmacokinetic behavior of RNB-61, studies in rodents were conducted at the in vivo facility of F. Hoffmann-La Roche Ltd. (Basel, Switzerland). The plasma-concentration time profile was studied in rodents after single-dose RNB-61 administration by oral gavage (p.o. microsuspension excipients 7.5% gelatin/0.62% NaCl) and intravenous bolus injection (i.v. solution, excipients NMP:NaCl (30:70)). Three groups of male Wistar rats (n = 2 per group) were administered RNB-61 either at 1 mg kg^–1 i.v., 3 mg kg^–1 p.o., or 26 mg kg^–1 p.o. Plasma samples were drawn at 0.083, 0.25, 0.5, 1, 2, 4, 8, and 24 postdose in the i.v. group and at 0.25, 0.5, 0.75, 1.5, 3, 5, 8, and 24 h postdose in the p.o. groups. The samples were analyzed for RNB-61 concentration by LC/MS-MS. For the LC/MS-MS analysis, and the samples were prepared by adding 100 uL to 400 uL ACN with ISTD (100 ng/mL Bosantan in ACN/MeOH 1/1), stirring, and centrifuging (4000 rpm, 65’). 100 uL of the supernatant were pipetted and diluted with 400 μL H2O at pH 3. The analytes were separated on a Restek C18 column (5 μm, 1.0 × 3 mm). The mobile phase consisted of water containing 0.1% HCOOH as solvent A and ACN containing 0.1% HCOOH as solvent B. The gradient curve starting with 5% B was changed to 90% B between 0.4 and 0.6 min and further increased to 95% B between 0.6 and 1.2 min. This was maintained until 1.4 min and then reduced and kept at 5% B between 1.45 and 2.0 min. The mass spectrometer was operated in the positive mode. All LC-MS/MS was done using the Agilent RapidFire Analyzer software (version 4.3). The pharmacokinetic parameters were estimated by noncompartmental analysis in the Certara WinNonlin software (version 5.3). A similar study design was run in mice with three groups receiving 2 mg kg^–1 i.v., 4 mg kg^–1 p.o., or 26 mg kg^–1 p.o., and plasma sampling occurring in a composite profile (n = 2 for each time point) up to 7 or 24 h postdose. Male C57/BL6 mice (n = 5 per group) were used to study the influence of P-gp efflux on brain penetration. Two groups of mice were administered RNB-61 by i.v. bolus injection at 1 mg kg^–1 (2 groups). In order to block P-gp activity, an i.v. bolus of 5 mg kg^–1 tariquidar[46] was injected into one group 30 min prior to RNB-61. Plasma was collected at 0.083, 0.25, 0.5, 2, 4, and 7 h postdose in a composite profile. Brain, CSF, and vitreous body were collected at terminal time points 0.5, 2, 4, and 7 h postdose.

human wild type CB2R = human wild type CB2R (Homo sapiens, UniProt P34972); assay: [35S]GTPγS binding assay (G-protein activation); type: biochemical; set-up: host or cells: CHO cells (Pathhunter)
[3] = expressed as percentage, compared with CP55,940

Chain of human wild type CB2R (P34972 whole entry): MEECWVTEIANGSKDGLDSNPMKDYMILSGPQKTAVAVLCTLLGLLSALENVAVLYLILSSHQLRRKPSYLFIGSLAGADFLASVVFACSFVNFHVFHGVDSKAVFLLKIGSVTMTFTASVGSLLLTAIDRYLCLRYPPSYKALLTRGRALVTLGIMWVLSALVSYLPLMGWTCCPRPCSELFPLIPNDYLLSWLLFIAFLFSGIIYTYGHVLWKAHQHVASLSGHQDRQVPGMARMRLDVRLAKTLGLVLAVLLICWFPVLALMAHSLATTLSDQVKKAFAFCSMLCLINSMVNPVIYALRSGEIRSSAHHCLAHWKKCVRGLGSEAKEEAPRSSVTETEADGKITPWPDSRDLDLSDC
T1 sequence (P34972 whole entry Q63R): as the sequence (P34972 whole entry) above, with Q63R counted along it
Chain of GPR55 (Q9Y2T6 whole entry, species assumed): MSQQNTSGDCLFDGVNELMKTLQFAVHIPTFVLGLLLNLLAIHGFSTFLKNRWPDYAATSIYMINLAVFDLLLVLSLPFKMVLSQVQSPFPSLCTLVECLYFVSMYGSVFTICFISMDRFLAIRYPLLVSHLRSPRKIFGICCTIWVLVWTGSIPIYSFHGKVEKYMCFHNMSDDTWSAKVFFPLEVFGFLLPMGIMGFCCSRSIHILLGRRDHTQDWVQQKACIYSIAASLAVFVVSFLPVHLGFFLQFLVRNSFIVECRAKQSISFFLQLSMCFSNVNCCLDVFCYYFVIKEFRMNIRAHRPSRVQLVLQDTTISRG
T2 sequence (Q9QZN9 whole entry): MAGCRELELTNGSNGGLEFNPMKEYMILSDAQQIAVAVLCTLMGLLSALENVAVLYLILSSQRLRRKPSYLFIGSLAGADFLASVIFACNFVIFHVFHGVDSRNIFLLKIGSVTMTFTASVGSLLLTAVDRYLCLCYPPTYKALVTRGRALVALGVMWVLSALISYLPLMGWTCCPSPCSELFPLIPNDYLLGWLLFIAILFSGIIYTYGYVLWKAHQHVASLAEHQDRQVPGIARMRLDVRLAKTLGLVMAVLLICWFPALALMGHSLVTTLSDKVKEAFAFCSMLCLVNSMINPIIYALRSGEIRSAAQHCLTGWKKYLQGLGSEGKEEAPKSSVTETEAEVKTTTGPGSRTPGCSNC

SMILES: Cn1c(C(C)(C)C)cc(=NC(=O)c2cc(C(F)(F)F)ccc2OCC(C)(C)O)n1CC1CCC1 [RNB-61]
- EC50 (human Q63R variant CB2R): 0.29 ± 0.07 nM
- EC50 (rat CB2R): 0.13 ± 0.07 nM
- IC50 ([1]; Table S1, read-out: EMT (Ki, IC50)): > 10000 nM
- inhibition of cellular AEA uptake (EMT) ([1]; screening concentration 10 μM): did not inhibit
- IC50 (GPR55): > 50000 nM
- GSH adducts (human liver microsomes) (GSH adduct formation): did not form any adducts; also recorded: no adducts detected
- AUC(0-inf) ([2]; iv, 1 mg kg^–1 i.v.): 5170 ng·h/mL
- Tmax ([2]; iv, 1 mg kg^–1 i.v.): 0.083 h
- clearance ([2]; iv, 1 mg kg^–1 i.v.): 3.5 mL/min/kg
- half-life ([2]; iv, 1 mg kg^–1 i.v.): 6 h
- Cmax ([2]; iv, 1 mg kg^–1 i.v., read-out: Cmax): 619 ng/mL
- Cmax ([2]; iv, 1 mg kg^–1 i.v., read-out: Cmax (molar)): 1280 nM
- Vd ([2]; iv, 1 mg kg^–1 i.v., read-out: Vss): 1.6 L/kg
- AUC(0-inf) ([2]; po, 3 mg kg^–1 p.o.): 7410 ng·h/mL
- Tmax ([2]; po, 3 mg kg^–1 p.o.): 5.5 h
- bioavailability ([2]; po, 3 mg kg^–1 p.o.): 48%
- half-life ([2]; po, 3 mg kg^–1 p.o.): 7.1 h
- Cmax ([2]; po, 3 mg kg^–1 p.o., read-out: Cmax): 446 ng/mL
- Cmax ([2]; po, 3 mg kg^–1 p.o., read-out: Cmax (molar)): 926 nM
- AUC(0-inf) ([2]; po, 26 mg kg^–1 p.o.): 117000 ng·h/mL
- Tmax ([2]; po, 26 mg kg^–1 p.o.): 3 h
- bioavailability ([2]; po, 26 mg kg^–1 p.o.): 87%
- half-life ([2]; po, 26 mg kg^–1 p.o.): 49 h
- Cmax ([2]; po, 26 mg kg^–1 p.o., read-out: Cmax): 1710 ng/mL
- Cmax ([2]; po, 26 mg kg^–1 p.o., read-out: Cmax (molar)): 3500 nM
- EC50 (human wild type CB2R; Figure 2): 0.33 nM and 1.65 nM
- Emax (human wild type CB2R; [3]): 100%
- Emax [35S]GTPγS binding (human wild type CB2R; [3]): same efficacy (Emax) as CP55,940
